What was measured:
[1] = known in the art; cited from earlier work
[2] = tested on: skin; assay: Surfactant skin penetration at 5 depths after forearm controlled application technique (FCAT), liquid chromatography and mass spectrometry; type: in vivo
Source text: One way to test the potential mildness of a surfactant is by looking at how it interacts with the skin. One type of interaction with the skin is skin penetration. Skin penetration looks at how much of the surfactant will penetrate into the skin. It is believed that the more the surfactant penetrates into the skin, the less mild the composition. Originally, this was believed to be largely driven by the structure of the surfactant, itself. Now, it is believed that the phase behavior associated with the surfactant can also have an impact on the penetration of the surfactant, and thus, its mildness. One surfactant reviewed for mildness is sodium trideceth-2 sulfate. […] In FIG. 1, the lighter gray (left hand column) is sodium trideceth-2 sulfate deposited on skin in a vesicle form, specifically a lamellar form as part of Composition F (below), while the darker gray (right hand column) is sodium trideceth-2 sulfate deposited in a micellar form as part of Composition E (below). The compositions were applied in accordance with a forearm controlled application technique (FCAT), a description of which is found in Ertel et al., “A forearm controlled application technique for estimating the relative mildness of personal cleansing products,” J. Soc. Cosmet. […] The levels of the target materials on the skin are then measured with a combination of liquid chromatography and mass spectrometry.

Substance: cocamide monoethanolamine
- HLB value [1]: 16.8

Substance: cocamidopropyl betaine
- penetration of the surfactant into skin (concentration at depth 01 to depth 05) ([2]; in vivo): A similar result was seen

Substance: sodium trideceth-2 sulfate
- penetration of the surfactant into skin (concentration at depth 01 to depth 05) ([2]; deposited from micellar composition (Composition E) versus lamellar composition (Composition F), FCAT, FIGS. 1-3): penetrates the skin at a greater concentration at all 5 depths measured
